Test results reported in patent US20090192167A1 (priority 2005, published 2009).
Where two headings read alike, the source gives them in different places.

Key:
[1] = system: Pyricularia oryzae; format: in vivo; conditions: granule, submerged application, inoculated 14 days after treatment, lesions examined after 7 days
[2] = system: Pyricularia oryzae; format: in vivo; conditions: granule, nursery box, inoculated 30 days after treatment, lesions examined after 7 days
[3] = system: Pyricularia oryzae; format: in vivo; conditions: inoculated 1 day after spraying, lesions counted after 7 days
[4] = system: Chilo suppressalis; conditions: in vivo
[5] = system: Chilo suppressalis; conditions: in vivo; remark: listed apart in the source
[6] = system: Chilo suppressalis; conditions: in vivo; remark: listed apart in the source
[7] = amount of treated chemical 100 gai/box
[8] = amount of treated chemical 150 gai/box
[9] = amount of treated chemical 60 gai/box

`Cc1cc(C(F)(C(F)(F)F)C(F)(F)F)cc(C)c1NC(=O)c1cccc(NC(=O)c2cccnc2Cl)c1` [Compound 106, N-(2,6-dimethyl-4-heptafluoroisopropyl)phenyl 3-[(2-chloropyridine-3-yl)carbonylamino]benzamide] was tested, and the “Pyricularia oryzae Control value” ([1]; 300 (gai/box)) was 3 and the “Pyricularia oryzae Control value” ([2]; 5 gai/box) was 4.
In the case of `O=C(Nc1cccc(C(=O)Nc2c(Br)cc(C(F)(C(F)(F)F)C(F)(F)F)cc2SC(F)(F)F)c1)c1ccccc1` [Compound 210], the “Pyricularia oryzae Control value” [3, 7] is reported as 0 and the “Mortality (%)” value [4] is reported as 95%.
`Cc1cc(C(F)(C(F)(F)F)C(F)(F)F)cc(C)c1NC(=O)c1cccc(NC(=O)c2ccccc2)c1F` [Compound 601, N-(2,6-dimethyl-4-heptafluoroisopropyl)phenyl 3-(benzoylamino)-2-fluorobenzamide] was tested, and the “Pyricularia oryzae Control value” [3, 7] was 2 and the “Mortality (%)” value [4] was 95%.
With `Cc1cc(C(F)(C(F)(F)F)C(F)(F)F)cc(C)c1NC(=O)c1cccc(NC(=O)c2cccnc2Cl)c1F` [Compound 639] the “Pyricularia oryzae Control value” ([1]; 300 (gai/box)) was 0 and the “Pyricularia oryzae Control value” ([2]; 5 gai/box) was 5.
`Cc1cc(C(F)(C(F)(F)F)C(F)(F)F)cc(C)c1NC(=O)c1cccc(N(C)C(=O)c2ccccc2)c1F` [Compound 1208] was tested, and the “Pyricularia oryzae Control value” [3, 7] was 5 and the “Mortality (%)” value [4] was 95%.
For `Cc1cc(C(F)(C(F)(F)F)C(F)(F)F)cc(C)c1NC(=O)c1cccc(N(C)C(=O)c2ccc(C#N)cc2)c1F` [Compound 1217], the “Mortality (%)” value [5] was 95%, the “Pyricularia oryzae Control value” ([1]; 300 (gai/box)) was 5 and the “Mortality (%)” value [6] was 95%. For the same molecule, the “Pyricularia oryzae Control value” ([2]; 5 gai/box) was 0.
For `Cc1cc(C(F)(C(F)(F)F)C(F)(F)F)cc(C)c1NC(=O)c1cccc(N(C)C(=O)c2cccnc2Cl)c1F` [Compound 1245], the “Pyricularia oryzae Control value” ([1]; 300 (gai/box)) was 0 and the “Pyricularia oryzae Control value” ([2]; 5 gai/box) was 5.
In the case of `Cc1cc(C(F)(C(F)(F)F)C(F)(F)F)cc(C)c1NC(=O)c1cccc(N(C)C(=O)c2cccnc2F)c1F` [Compound 1246], the “Pyricularia oryzae Control value” ([1]; 300 (gai/box)) is reported as 4 and the “Pyricularia oryzae Control value” ([2]; 5 gai/box) is reported as 0.
`Cc1cc(C(F)(C(F)(F)F)C(F)(F)F)cc(C)c1NC(=O)c1cccc(NC(=O)OCC(F)(F)F)c1F` [Compound 3000] was tested, and the “Pyricularia oryzae Control value” [3, 7] was 3 and the “Mortality (%)” value [4] was 90%.
`Cc1cc(C(F)(C(F)(F)F)C(F)(F)F)cc(C)c1NC(=O)c1cccc(NC(=O)OC(CF)CF)c1` [Compound 3001] was tested, and the “Pyricularia oryzae Control value” [3, 7] was 0 and the “Mortality (%)” value [4] was 95%.
With `Cc1cc(C(F)(C(F)(F)F)C(F)(F)F)cc(C)c1NC(=O)c1cccc(NC(=O)OCCCl)c1F` [Compound 3002] the “Pyricularia oryzae Control value” [3, 7] was 3 and the “Mortality (%)” value [4] was 90%.
In the case of `Cc1ccc(C(=O)NCC(NC(=O)OC(C)C)C(C)C)cc1` (stereo not shown) [Compound 3003], the “Mortality (%)” value [5] is reported as 0%, the “Pyricularia oryzae Control value” [3, 8] is reported as 100 and the “Pyricularia oryzae Control value” ([1]; 450 (gai/box)) is reported as 100. The “Mortality (%)” value [6] was 0%, the “Mortality (%)” value [4] was 0% and the “Pyricularia oryzae Control value” ([2]; 15 gai/box) was 100.
In the case of `Cc1ccc(C(=O)NCC(NC(=O)OC(C)C)C(C)(C)C)cc1` (stereo not shown) [Compound 3004], the “Mortality (%)” value [5] is reported as 0%, the “Pyricularia oryzae Control value” [3, 8] is reported as 100 and the “Pyricularia oryzae Control value” ([1]; 450 (gai/box)) is reported as 100. For the same molecule, the “Mortality (%)” value [6] was 0%, the “Mortality (%)” value [4] was 0% and the “Pyricularia oryzae Control value” ([2]; 15 gai/box) was 100.
`CC(C)OC(=O)NC(CNC(=O)c1cc2ccccc2o1)C(C)C` (stereo not shown) [Compound 3005] was tested, and the “Mortality (%)” value [5] was 0%, the “Pyricularia oryzae Control value” [3, 8] was 100 and the “Pyricularia oryzae Control value” ([1]; 450 (gai/box)) was 100. For the same molecule, the “Mortality (%)” value [6] was 0%, the “Mortality (%)” value [4] was 0% and the “Pyricularia oryzae Control value” ([2]; 15 gai/box) was 100.
For `Cc1ccc(C(=O)NCC(NC(=O)OCC(F)(F)F)C(C)C)cc1` (stereo not shown) [Compound 3006], the “Mortality (%)” value [5] was 0%, the “Pyricularia oryzae Control value” [3, 9] was 100 and the “Pyricularia oryzae Control value” ([1]; 225 (gai/box)) was 100. For the same molecule, the “Mortality (%)” value [6] was 0%, the “Mortality (%)” value [4] was 0% and the “Pyricularia oryzae Control value” ([2]; 7.5 gai/box) was 100.
In the case of `Cc1ccc(C(=O)NCC(NC(=O)OCC(F)(F)F)C(C)(C)C)cc1` (stereo not shown) [Compound 3007], the “Pyricularia oryzae Control value” [3, 9] is reported as 100, the “Pyricularia oryzae Control value” ([1]; 225 (gai/box)) is reported as 100 and the “Mortality (%)” value [4] is reported as 5%. For the same molecule, the “Pyricularia oryzae Control value” ([2]; 7.5 gai/box) was 100.
In the case of `CC(C)C(CNC(=O)c1cc2ccccc2o1)NC(=O)OCC(F)(F)F` (stereo not shown) [Compound 3008], the “Mortality (%)” value [5] is reported as 0%, the “Pyricularia oryzae Control value” [3, 9] is reported as 100 and the “Pyricularia oryzae Control value” ([1]; 225 (gai/box)) is reported as 100. The “Mortality (%)” value [6] was 0%, the “Mortality (%)” value [4] was 0% and the “Pyricularia oryzae Control value” ([2]; 7.5 gai/box) was 100.
